For test [1], the target named is T1, Runt-related transcription factor 1/Core-binding factor subunit beta (Homo sapiens, UniProt Q01196+Q13951). As to the kind of experiment: disruptors of Runt domain/CBFb-SMMHC interaction – biochemical, FRET, Cerulean-Runt, Venus-CBFb-SMMHC, uHTS, […] (AID 1434). The class given is protein assay.
Test [2] has as its target T1, Runt-related transcription factor 1/Core-binding factor subunit beta. As to the kind of experiment: Runt domain/CBFb-SMMHC interaction disruptors – biochemical, TR-FRET (AID 1438). The class given is protein assay.
Another test has as its system Streptococcus. In words: GAS UMAA2166 growth inhibition – luminescence, BacTiterGlo, counter-screen for streptokinase expression inhibitor project, dose response (AID 1915).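 Also: potency for reduction of bacterial viability or growth.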 Format: functional, organism-based. Background: The purpose of a counterscreen is to sort out artefacts and off-target activity.
The test system of test [3] is Streptococcus sp. 'group A'. In words: Streptococcus pyogenes SK(-)GAS viability under kanamycin – luminescence, BacTiterGlo, confirmation, counter-screen for streptokinase expression inhibitor project, dose response (AID 1900). Format: functional, organism-based.
In the next test the target is Cytochrome P450 3A4 (Homo sapiens, UniProt P08684).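 Also: CYP3A4 tested as one member of a cytochrome P450 panel screen.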
In a further test the target is Ion channel NompC (Danio rerio, UniProt Q7T1G6). In words: Dose response cell-based high-throughput screening assay for agonists of the transient receptor potential channel N1 (TRPN1). [Related pubchem assays (depositor defined):AID1424, AID1448]. The class given is functional.
The test system of another test is INS1. As to the kind of experiment: INS-1E survival protection against cytokine death – cell-based, luminescence, retest, dose response (AID 449756).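 Also: cell death triggered by IL-1 beta plus TNF-alpha plus IFN-gamma mixture; protective hits raise ATP signal compared with cytokine alone wells.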 The class given is functional. The note with it: Rattus norvegicus.
A further test addresses Mucolipin-3 (Homo sapiens, UniProt Q8TDD5). As to the kind of experiment: Fluorescence counterscreen assay for […] agonists: dose response cell-based high-throughput screening assay to identify agonists of the transient receptor potential channel ML3 (TRPML3). [Related pubchem assays: 1424, 1448 ]. The class given is functional.
Test [4] can be described thus: NIH3T3 cell viability loss – ATP luminescence, mouse fibroblasts, counter-screen, dose response (AID 2010).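 Also: cells exposed to compound for about 90 hours before reading.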 Format: functional, cell-based.
Test [5] in a line: Trypanosoma cruzi growth suppression in host cells – NIH3T3 host cells, beta-gal luminescence, confirmation (AID 2044).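 Also: intracellular parasites grown in NIH/3T3 mouse fibroblasts as host cells; luminescent beta-galactosidase reporter signal from transgenic T. cruzi replicating inside host cells; inhibitors lower the luminescence signal.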 Format: functional, cell-based.
The target of a further test is Cytochrome P450 2D6 (Homo sapiens, UniProt P10635).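 Also: CYP2D6 member of a cytochrome P450 panel assay.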
Cytochrome P450 2D6, sequence (P10635 whole entry): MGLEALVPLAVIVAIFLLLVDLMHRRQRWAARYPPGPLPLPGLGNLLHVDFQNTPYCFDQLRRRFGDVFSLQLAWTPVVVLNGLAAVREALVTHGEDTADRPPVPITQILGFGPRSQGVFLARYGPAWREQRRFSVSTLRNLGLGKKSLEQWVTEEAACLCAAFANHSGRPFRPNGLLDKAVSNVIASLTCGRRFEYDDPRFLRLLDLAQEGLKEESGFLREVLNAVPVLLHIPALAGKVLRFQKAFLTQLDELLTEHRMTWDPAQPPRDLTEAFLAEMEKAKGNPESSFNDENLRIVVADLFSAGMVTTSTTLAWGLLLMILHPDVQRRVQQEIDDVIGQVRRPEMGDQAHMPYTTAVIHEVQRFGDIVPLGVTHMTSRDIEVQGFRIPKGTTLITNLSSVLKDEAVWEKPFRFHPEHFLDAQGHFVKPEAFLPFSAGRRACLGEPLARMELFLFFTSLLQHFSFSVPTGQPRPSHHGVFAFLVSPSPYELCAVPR
Test [6] can be described thus: Luminescence Cell-Based Dose Retest to Confirm Inhibitors of Cancer Stem Cells. [Related pubchem assays (depositor defined):AID2717, AID2721]. The note with it: Homo sapiens. Format: functional.
Test [7] concerns the target T2, Alkaline phosphatase, tissue-nonspecific isozyme (Homo sapiens, UniProt P05186).
T2 sequence (P05186 whole entry): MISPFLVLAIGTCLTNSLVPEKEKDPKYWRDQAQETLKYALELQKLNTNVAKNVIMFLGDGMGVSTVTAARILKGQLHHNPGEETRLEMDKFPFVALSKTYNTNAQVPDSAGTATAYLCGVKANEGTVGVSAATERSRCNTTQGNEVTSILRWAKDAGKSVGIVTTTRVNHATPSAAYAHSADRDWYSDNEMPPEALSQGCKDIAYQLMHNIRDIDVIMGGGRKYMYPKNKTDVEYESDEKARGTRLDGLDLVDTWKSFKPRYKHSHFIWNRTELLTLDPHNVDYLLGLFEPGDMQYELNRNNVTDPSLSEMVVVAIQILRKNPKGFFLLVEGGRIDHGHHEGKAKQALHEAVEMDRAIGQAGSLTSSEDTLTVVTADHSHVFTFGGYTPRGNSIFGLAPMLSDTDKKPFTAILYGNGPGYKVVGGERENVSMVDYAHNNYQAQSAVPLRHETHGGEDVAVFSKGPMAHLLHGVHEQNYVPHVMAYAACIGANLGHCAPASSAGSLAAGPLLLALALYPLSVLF
In words: activation of tissue-nonspecific alkaline phosphatase – biochemical, TNAP isozyme, mouse IAP uHTS hits, selectivity assay for mouse IAP activator project, dose response (AID 488880). The class given is functional.

The test system of the next test is Vero. In words: viability of Vero cells under compound – cytotoxicity control for flavivirus capping enzyme inhibitors (AID 588742). The class given is functional. The following applies: Chlorocebus sabaeus.
For test [8], the target named is Intestinal-type alkaline phosphatase (Mus musculus, UniProt P24822). In words: mouse intestinal alkaline phosphatase activators, dose response, biochemical, luminescence, uHTS hits (AID 488783). The class given is functional.
For test [9], the target named is Intestinal-type alkaline phosphatase (Homo sapiens, UniProt P09923). As to the kind of experiment: activation of human intestinal alkaline phosphatase – biochemical, dose response (AID 488873). Format: functional.
A further test concerns the target Large T antigen (Simian virus 40, UniProt P03070). Format: functional, Betapolyomavirus macacae.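 Also: Confirmatory-stage PubChem screen for compounds that inhibit SV40 T antigen.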
The target of test [10] is T1, Runt-related transcription factor 1/Core-binding factor subunit beta. As to the kind of experiment: Confirmation of compounds inhibiting the binding between the RUNX1 Runt domain and CBFb-SMMHC via a time resolved fluorescence resonance energy transfer (TR-FRET) assay. [Related pubchem assays (depositor defined):AID1434, AID1438, AID1496, AID1560, AID1645]. The class given is protein assay. On the technique in general: In TR-FRET formats the signal depends on donor and acceptor labels being close together.

For test [11] the target is unchanged. As to the kind of experiment: Confirmation of compounds inhibiting the binding between the RUNX1 Runt domain and CBFb-SMMHC via a fluorescence resonance energy transfer (FRET) assay. [Related pubchem assays (depositor defined):AID1434, AID1438, AID1496, AID1550, AID1645]. Format: protein assay.
A short description of test [12]: PhoP promoter GFP reporter reduction in Typhimurium – purified and synthesized compounds, set 2, PhoP regulon inhibitor project, dose response (AID 2831). The class given is functional.
The target in test [13] is Kappa-type opioid receptor (Homo sapiens, UniProt P41145). As to the kind of experiment: SAR analysis of small molecule agonists of the kappa opioid receptor via a luminescent beta-arrestin assay - Set 3. [Related pubchem assays (depositor defined):AID1777, AID1785, AID1786, AID1966, AID2133, AID2136, AID2284, AID2500]. The class given is functional.
Kappa-type opioid receptor, sequence (P41145 whole entry): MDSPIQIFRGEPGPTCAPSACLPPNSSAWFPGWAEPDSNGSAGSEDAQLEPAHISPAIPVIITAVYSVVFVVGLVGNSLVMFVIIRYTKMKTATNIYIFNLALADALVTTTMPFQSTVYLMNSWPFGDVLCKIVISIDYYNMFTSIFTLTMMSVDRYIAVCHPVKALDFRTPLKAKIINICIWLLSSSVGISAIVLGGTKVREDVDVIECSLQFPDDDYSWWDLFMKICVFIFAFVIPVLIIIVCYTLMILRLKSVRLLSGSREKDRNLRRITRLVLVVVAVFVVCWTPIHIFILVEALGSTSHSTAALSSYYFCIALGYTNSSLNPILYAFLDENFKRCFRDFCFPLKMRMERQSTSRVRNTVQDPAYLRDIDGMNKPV
Test [14] has as its target Tyrosine-protein phosphatase non-receptor type 7 (Homo sapiens, UniProt P35236). As to the kind of experiment: inhibition of hematopoietic tyrosine phosphatase HePTP – biochemical, set 2, SAR follow-up (AID 449736). Format: functional.
Test [15] in a line: cells. The class given is functional, cell-based.
Test [16] deals with T3, SUMO-activating enzyme (Homo sapiens, UniProt Q9UBT2). As to the kind of experiment: blockers of UBC9-mediated SUMO conjugation – biochemical, AlphaScreen, SUMOylation inhibitor project, confirmation (AID 2018). The class given is functional.
T3 sequence (Q9UBE0 whole entry): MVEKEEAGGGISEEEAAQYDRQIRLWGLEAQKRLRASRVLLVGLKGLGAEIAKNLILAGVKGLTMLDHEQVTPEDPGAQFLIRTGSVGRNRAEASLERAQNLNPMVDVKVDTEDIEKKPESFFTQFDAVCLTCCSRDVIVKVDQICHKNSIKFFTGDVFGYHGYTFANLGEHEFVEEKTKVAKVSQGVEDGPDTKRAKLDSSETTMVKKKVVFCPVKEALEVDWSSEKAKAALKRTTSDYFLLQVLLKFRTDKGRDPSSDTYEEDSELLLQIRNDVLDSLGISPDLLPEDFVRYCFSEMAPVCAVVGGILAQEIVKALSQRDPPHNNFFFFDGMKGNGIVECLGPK
T3 sequence (Q9UBT2 whole entry): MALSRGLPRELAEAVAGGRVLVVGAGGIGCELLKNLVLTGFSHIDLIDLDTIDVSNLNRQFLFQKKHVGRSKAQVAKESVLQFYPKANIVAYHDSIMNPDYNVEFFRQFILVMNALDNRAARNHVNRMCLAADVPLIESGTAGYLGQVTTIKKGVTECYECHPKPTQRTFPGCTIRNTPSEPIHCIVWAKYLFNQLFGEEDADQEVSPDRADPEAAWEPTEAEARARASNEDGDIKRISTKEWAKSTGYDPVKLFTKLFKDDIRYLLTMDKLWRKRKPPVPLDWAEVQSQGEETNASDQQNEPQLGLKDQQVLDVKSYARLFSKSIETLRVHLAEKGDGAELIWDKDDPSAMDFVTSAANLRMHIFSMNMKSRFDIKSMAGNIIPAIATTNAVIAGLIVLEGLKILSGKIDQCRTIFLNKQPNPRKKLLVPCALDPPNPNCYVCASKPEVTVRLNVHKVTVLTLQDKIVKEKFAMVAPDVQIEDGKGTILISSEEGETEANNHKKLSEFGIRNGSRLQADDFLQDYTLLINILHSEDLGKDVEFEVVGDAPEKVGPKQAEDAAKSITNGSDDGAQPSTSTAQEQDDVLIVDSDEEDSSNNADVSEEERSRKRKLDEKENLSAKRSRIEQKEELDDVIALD
The nature of test [17]: cells. Format: functional, cell-based. This is another data set of the same source.
A further test addresses Galanin receptor type 3 (Homo sapiens, UniProt O60755). As to the kind of experiment: Fluorescence-based cell-based primary high throughput dose response assay to identify antagonists of the Galanin Receptor 3 (GalR3). Format: functional.
Test [18] can be described thus: cells. The class given is functional, cell-based. The following applies: HEK-CNG.
For test [19], the target named is T3, SUMO-activating enzyme. As to the kind of experiment: blockers of SAE1/SAE2–UBC9 SUMO transfer – biochemical, HTRF, uHTS, primary screen (AID 2006). Format: protein-complex assay.
A further test deals with Albumin (Bos taurus, UniProt P02769). As to the kind of experiment: Counterscreen for inhibitors of T-cell receptor (TCR)-CD3 interaction: Fluorescence-based biochemical high throughput dose response assay to identify inhibitors of T-cell receptor (TCR)-CD3 interaction using a TAMRA-labeled BSA probe. Format: functional.
Albumin, sequence (P02769 whole entry): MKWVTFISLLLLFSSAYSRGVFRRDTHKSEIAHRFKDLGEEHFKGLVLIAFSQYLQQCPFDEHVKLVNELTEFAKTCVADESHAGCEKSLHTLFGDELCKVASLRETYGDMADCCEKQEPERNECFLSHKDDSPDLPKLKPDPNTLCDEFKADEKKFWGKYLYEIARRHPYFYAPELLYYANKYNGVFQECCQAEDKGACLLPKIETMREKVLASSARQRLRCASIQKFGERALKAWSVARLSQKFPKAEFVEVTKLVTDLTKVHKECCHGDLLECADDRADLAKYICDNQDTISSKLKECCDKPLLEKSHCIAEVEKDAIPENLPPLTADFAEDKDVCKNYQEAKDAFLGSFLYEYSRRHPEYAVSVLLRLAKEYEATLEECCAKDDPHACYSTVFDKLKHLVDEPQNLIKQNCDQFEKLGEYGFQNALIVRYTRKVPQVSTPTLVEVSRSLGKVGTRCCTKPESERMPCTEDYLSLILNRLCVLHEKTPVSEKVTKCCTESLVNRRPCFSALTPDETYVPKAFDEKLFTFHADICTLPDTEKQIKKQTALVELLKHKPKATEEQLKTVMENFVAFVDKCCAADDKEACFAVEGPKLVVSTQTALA

One may read the IC50 as the concentration needed to halve the response being measured. For orientation: EC50 means the concentration needed to bring the measured effect to its halfway point. What is called AC50 is the concentration giving half of the maximal activity seen. Broadly, the CC50 is the concentration giving 50% cytotoxicity.

The source made the active and inactive calls. Bounds are passed on as bounds.

T1 sequence (Q01196 whole entry, the tested form may be a part): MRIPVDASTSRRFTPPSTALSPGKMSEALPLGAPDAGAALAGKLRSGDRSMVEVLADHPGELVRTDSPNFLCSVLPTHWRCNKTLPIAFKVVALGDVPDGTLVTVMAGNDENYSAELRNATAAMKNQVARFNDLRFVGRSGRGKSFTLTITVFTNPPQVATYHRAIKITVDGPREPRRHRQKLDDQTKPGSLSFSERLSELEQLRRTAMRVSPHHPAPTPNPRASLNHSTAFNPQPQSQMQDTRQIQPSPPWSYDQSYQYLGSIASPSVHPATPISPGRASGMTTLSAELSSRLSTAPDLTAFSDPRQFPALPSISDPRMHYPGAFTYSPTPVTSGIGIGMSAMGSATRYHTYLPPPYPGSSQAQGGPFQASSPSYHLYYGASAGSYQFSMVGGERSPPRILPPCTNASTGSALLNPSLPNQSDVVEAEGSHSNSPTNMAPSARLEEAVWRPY
T1 sequence (Q13951 whole entry, the tested form may be a part): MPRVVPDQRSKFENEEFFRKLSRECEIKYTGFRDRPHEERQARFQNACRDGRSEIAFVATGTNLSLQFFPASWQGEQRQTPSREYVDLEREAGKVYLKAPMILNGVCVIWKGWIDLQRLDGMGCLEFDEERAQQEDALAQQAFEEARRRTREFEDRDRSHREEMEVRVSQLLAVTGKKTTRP
Galanin receptor type 3, sequence (O60755 whole entry): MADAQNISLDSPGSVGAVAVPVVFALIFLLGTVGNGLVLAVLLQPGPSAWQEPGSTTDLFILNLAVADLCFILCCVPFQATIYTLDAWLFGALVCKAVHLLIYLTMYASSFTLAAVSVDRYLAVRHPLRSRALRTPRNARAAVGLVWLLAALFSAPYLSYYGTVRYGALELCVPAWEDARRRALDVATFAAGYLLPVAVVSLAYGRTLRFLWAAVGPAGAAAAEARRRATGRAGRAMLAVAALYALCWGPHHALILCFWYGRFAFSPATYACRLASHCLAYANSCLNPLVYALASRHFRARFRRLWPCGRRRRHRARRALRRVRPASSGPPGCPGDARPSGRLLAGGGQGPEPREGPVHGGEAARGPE
Large T antigen, sequence (P03070 whole entry, the tested form may be a part): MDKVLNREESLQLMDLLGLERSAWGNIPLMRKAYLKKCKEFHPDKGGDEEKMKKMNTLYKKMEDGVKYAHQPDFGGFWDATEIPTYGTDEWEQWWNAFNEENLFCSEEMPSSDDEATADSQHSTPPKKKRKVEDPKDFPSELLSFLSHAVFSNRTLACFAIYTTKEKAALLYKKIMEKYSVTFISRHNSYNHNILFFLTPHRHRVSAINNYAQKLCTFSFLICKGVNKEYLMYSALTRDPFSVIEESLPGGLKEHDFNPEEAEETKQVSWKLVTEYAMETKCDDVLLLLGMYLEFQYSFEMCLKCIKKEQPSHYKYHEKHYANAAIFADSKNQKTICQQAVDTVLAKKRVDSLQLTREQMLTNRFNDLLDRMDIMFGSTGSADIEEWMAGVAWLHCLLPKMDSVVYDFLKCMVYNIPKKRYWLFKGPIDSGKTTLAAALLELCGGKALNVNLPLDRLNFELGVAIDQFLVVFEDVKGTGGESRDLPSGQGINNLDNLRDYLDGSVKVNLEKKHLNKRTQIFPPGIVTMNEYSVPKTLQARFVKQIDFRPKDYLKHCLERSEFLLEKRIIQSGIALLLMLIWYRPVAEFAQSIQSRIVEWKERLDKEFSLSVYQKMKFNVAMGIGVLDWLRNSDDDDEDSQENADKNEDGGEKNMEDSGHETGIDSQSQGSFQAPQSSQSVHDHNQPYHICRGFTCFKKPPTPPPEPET
Tyrosine-protein phosphatase non-receptor type 7, sequence (P35236 whole entry): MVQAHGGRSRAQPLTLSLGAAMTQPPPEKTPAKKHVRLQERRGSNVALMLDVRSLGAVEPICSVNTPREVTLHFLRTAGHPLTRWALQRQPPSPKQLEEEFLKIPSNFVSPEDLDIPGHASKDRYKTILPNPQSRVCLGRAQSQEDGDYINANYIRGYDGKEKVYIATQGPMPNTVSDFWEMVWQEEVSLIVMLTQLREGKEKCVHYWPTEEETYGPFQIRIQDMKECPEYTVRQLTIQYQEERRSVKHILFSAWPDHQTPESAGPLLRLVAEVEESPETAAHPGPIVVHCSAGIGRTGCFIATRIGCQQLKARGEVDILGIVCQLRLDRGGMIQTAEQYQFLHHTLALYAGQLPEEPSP

For the compound `COCCNC(=O)c1c(NC(=O)c2ccc(Br)o2)n(Cc2ccccc2)c2nc3ccccc3nc12`, the concentration for half-maximal inhibition (IC50) in [1] is 2.14 µM (active); in test [2] it was > 100 µM (inactive). For the same compound, the EC50 with Streptococcus was 4.36 µM (active); in test [3], 1.9 µM (active).
Turning to `COC(=O)c1cccc(NC(=O)Nc2ccc(Cl)c(Cl)c2)c1`, the AC50 was 22.4 µM (inconclusive) at Cytochrome P450 3A4, 6.38 µM (active) in the test on INS1, 22.4 µM (inconclusive) on Cytochrome P450 2D6 and 2.77 µM (active) in test [6]. Also, the EC50 was > 29.9 µM (inactive) on Ion channel NompC, > 29.9 µM (not active) on Mucolipin-3, > 60 µM (inconclusive) in test [4] and 2.15 µM (active) in [5].
As to `O=C(CN1C(=O)/C(=C/c2ccco2)SC1=S)NC1CCS(=O)(=O)C1` (centres undefined), the EC50 in test [7] is > 100 µM (inactive); in test [8], 2.03 µM (active); in [9], > 100 µM (inactive). For the same compound, in the test with Vero, the CC50 was > 40 µM (active). At Large T antigen, the IC50 was 85 µM (active).
Consider `Cc1cc(C=NNC(=O)Cn2c3ccccc3c(=O)c3ccccc32)c(C)n1-c1ccc(Cl)cc1`, for which the IC50 in test [10] was 13.6 µM (active); in [11], 3.58 µM (active).
Consider `O=C(Nc1ccc(Cl)cc1)N1CCCN(Cc2ccccc2F)C1`, for which the IC50 in test [12] was > 125 µM (active).
As to `COc1ccc(Cn2c(SCc3ccccc3)nnc2-c2ccccn2)cc1`, in test [13], the EC50 is > 20 µM (inactive).
In the case of `NS(=O)(=O)c1ccc(NC(=S)Nc2ccc3c(c2)CCC3)cc1`, in [14], the IC50 was 7.93 µM (active).
For the compound `C/C(=N\OCc1nc2ccccc2c(=O)n1/N=C/c1cc(C)cc([N+](=O)[O-])c1O)c1ccccc1`, the concentration for a half-maximal effect (EC50) in the test “cells [15]” was > 350 µM (not active); in the test “cells [17]” it was 78 µM (active); in the test “cells [18]” it was > 29.9 µM (inactive). The IC50 at SUMO-activating enzyme [16] was 1.2 µM (active); on Galanin receptor type 3, 3.39 µM (active); at SUMO-activating enzyme [19], 8.77 µM (active); at Albumin it was > 94.1 µM (inactive).

(Values after ChEMBL document CHEMBL1201862, “PubChem BioAssay data set” (2004).)
